Experimental data reported in patent publication US20240285784A1, “PEPTIDIC CONJUGATES OF SN38 USEFUL IN THE TREATMENT OF CANCER” (FUNDACIÓ INSTITUT DE RECERCA BIOMÈDICA (IRB BARCELONA), priority 2020, published 2024).
Where two headings read alike, the source gives them in different places. *1 amine or outer side, *2 acyl side, *3 side chain or, on linkers, in order; H or OH if unused. Where a SMILES comes first, the peptide text is derived from it. Bridges are numbered along the chain shown (N, C = ends). [ ]: non-standard residue; d: D form. The star is where a group is joined. X1 = CCc1c2c(nc3ccc(O)cc13)-c1cc3c(c(=O)n1C2)COC(=O)[C@@]3(CC)OC(=O)CCCCn1cc(CCCC(=O)NCCCOCCOCCOCCCN*)nn1; Suc = O=C(CCC(=O)[*:2])[*:1]; Dap = NC[C@H](N)C(=O)O

Experiments:
[1] = tested on: retinoblastoma cell model HSJD-RBT-5; test: MTS cell viability assay, retinoblastoma model HSJD-RBT-5; assay type: cell-based; conditions: 72 h incubation, Example 9, Table 3, read-out: IC50 values against cancer cell lines
Text: (§1) Cancer cell lines were obtained from the repository maintained at Hospital Sant Joan de Deu (Barcelona, Spain). Cancer cell lines used in these experiment included cancer types of adult glioma (U373 and U87 cell lines), pediatric gliomas including diffuse intrinsic pontine glioma (HSJD-DIPG-007, HSJD-DIPG-011), and pediatric high-grade glioma (HSJD-GBM-001), retinoblastoma (HSJD-RBT-5, HSJD-RBT-7 and HSJD-RBT-14), Ewing sarcoma (A673), rhabdomyosarcoma (Rd and RH4) and neuroblastoma (LAN-1 and SK-N-JD cell lines and HSJD-NB-004, HSJD-NB-005 and HSJD-NB-016 patient-derived cell models). […] To add the drugs to the cells in culture, SN38-linker A-MiniAp4 (Ia) and irinotecan were prepared in culture medium from stock solutions at concentration 1 mg/mL in water. SN38 was prepared in culture medium from a stock solution at concentration 1 mg/mL in DMSO. […] Activity curves were built for adult glioma cell lines U87 (FIG. 1) and U373 (FIG. 2), pediatric gliomas including DIPG models HSJD-DIPG-007 (FIG. 3) and HSJD-DIPG-011 (FIG. 4), and pediatric high-grade glioma model HSJD-GBM-001 (FIG. 5), retinoblastoma models HSJD-RBT-5 (FIG. 6), HSJD-RBT-7 (FIG. 7) and HSJD-RBT-14 (FIG. 8), Ewing sarcoma cell line A673 (FIG. 9), rhabdomyosarcoma cell lines Rd (FIG. 10) and RH4 (FIG. 11), neuroblastoma cell lines LAN-1 (FIG. 12) and SK-N-JD (FIG. 13) and neuroblastoma patient-derived cell models HSJD-NB-004 (FIG. 14), HSJD-NB-005 (FIG. 15) and HSJD-NB-016 (FIG. 16). The established IC50 values are in Table 3.

[2] = tested on: diffuse intrinsic pontine glioma HSJD-DIPG-007; test: cells
Text: as §1
Cancer cell lines used in these experiments were pediatric gliomas including diffuse intrinsic pontine glioma HSJD-DIPG-007, and pediatric high-grade glioma HSJD-GBM-001. […] To add the drugs to the cells in culture, SN38-Linker A-MiniAp4 (Ia) and SN38-Linker B-THRre were prepared in culture medium from stock solutions at concentration 1 mg/mL in water. SN38 was prepared in culture medium from a stock solution at concentration 1 mg/mL in DMSO. […] Activity curves were built for cells HSJD-DIPG-007 (FIG. 20) and HSJD-GBM-001 (FIG. 21).
Cancer cell lines used in these experiments were pediatric gliomas including diffuse intrinsic pontine glioma HSJD-DIPG-007, and pediatric high-grade glioma HSJD-GBM-001. […] All compounds were prepared in culture medium from stock solutions at concentration 1 mg/mL in water. […] Activity curves were built for cells HSJD-DIPG-007 (FIG. 22) and HSJD-GBM-001 (FIG. 23).
Cancer cell line used in these experiment was HSJD-DIPG-007.

[3] = tested on: neuroblastoma patient-derived cell model HSJD-NB-005; test: MTS cell viability assay, neuroblastoma model HSJD-NB-005; assay type: cell-based; conditions: 72 h incubation, Example 9, Table 3, read-out: IC50 values against cancer cell lines
Text: as §1

[4] = tested on: neuroblastoma patient-derived cell model HSJD-NB-004; test: MTS cell viability assay, neuroblastoma model HSJD-NB-004; assay type: cell-based; conditions: 72 h incubation, Example 9, Table 3, read-out: IC50 values against cancer cell lines
Text: as §1

[5] = tested on: rhabdomyosarcoma cell line Rd; test: MTS cell viability assay, rhabdomyosarcoma cell line Rd; assay type: cell-based; conditions: 72 h incubation, Example 9, Table 3, read-out: IC50 values against cancer cell lines
Text: as §1

[6] = tested on: neuroblastoma patient-derived cell model HSJD-NB-016; test: MTS cell viability assay, neuroblastoma model HSJD-NB-016; assay type: cell-based; conditions: 72 h incubation, Example 9, Table 3, read-out: IC50 values against cancer cell lines
Text: as §1

[7] = tested on: adult glioma cell line U87; test: MTS cell viability assay, adult glioma cell line U87; assay type: cell-based; conditions: 72 h incubation, Example 9, Table 3, read-out: IC50 values against cancer cell lines
Text: as §1

[8] = tested on: retinoblastoma cell model HSJD-RBT-7; test: MTS cell viability assay, retinoblastoma model HSJD-RBT-7; assay type: cell-based; conditions: 72 h incubation, Example 9, Table 3, read-out: IC50 values against cancer cell lines
Text: as §1

[9] = tested on: Ewing sarcoma cell line A673; test: MTS cell viability assay, Ewing sarcoma cell line A673; assay type: cell-based; conditions: 72 h incubation, Example 9, Table 3, read-out: IC50 values against cancer cell lines
Text: as §1

[10] = tested on: neuroblastoma cell line SK-N-JD; test: MTS cell viability assay, neuroblastoma cell line SK-N-JD; assay type: cell-based; conditions: 72 h incubation, Example 9, Table 3, read-out: IC50 values against cancer cell lines
Text: as §1

[11] = tested on: adult glioma cell line U373; test: MTS cell viability assay, adult glioma cell line U373; assay type: cell-based; conditions: 72 h incubation, Example 9, Table 3, read-out: IC50 values against cancer cell lines
Text: as §1

[12] = tested on: neuroblastoma cell line LAN-1; test: MTS cell viability assay, neuroblastoma cell line LAN-1; assay type: cell-based; conditions: Example 9, Table 3, read-out: IC50 values against cancer cell lines
Text: as §1

[13] = tested on: rhabdomyosarcoma cell line RH4; test: MTS cell viability assay, rhabdomyosarcoma cell line RH4; assay type: cell-based; conditions: 72 h incubation, Example 9, Table 3, read-out: IC50 values against cancer cell lines
Text: as §1

[14] = tested on: diffuse intrinsic pontine glioma HSJD-DIPG-011; test: MTS cell viability assay, DIPG model HSJD-DIPG-011; assay type: cell-based; conditions: 72 h incubation, Example 9, Table 3, read-out: IC50 values against cancer cell lines
Text: as §1

[15] = HSJD-DIPG-007, 72 h, read-out: IC50 values against cancer cell lines

Compound	IC50 [1]	IC50 [2, 15]	IC50 [3]	IC50 [4]	IC50 ([5]; Rhabdomyosarcoma cell)	IC50 [6]	IC50 ([7]; Glioma cell)	IC50 [8]	IC50 ([9]; Homo sapiens)	IC50 ([10]; Neuroblastoma cell)	IC50 ([11]; Homo sapiens, U373 MG)	IC50 ([12]; LAN1, 72 h incubation)	IC50 ([13]; Rhabdomyosarcoma cell)	IC50 [14]	further results
CCc1c2c(nc3ccc(OC(=O)N4CCC(N5CCCCC5)CC4)cc13)-c1cc3c(c(=O)n1C2)COC(=O)[C@]3(O)CC [Irinotecan]	911 nM	4.75 µM	8200 nM	9840 nM	5960 nM	659 nM	9750 nM	1120 nM	1440 nM	7760 nM	3720 nM	7000 nM	10800 nM	1200 nM	
CCc1c2c(nc3ccc(O)cc13)-c1cc3c(c(=O)n1C2)COC(=O)[C@]3(O)CC [SN38, 7-ethyl-10-hydroxy-camptothecin]	10.3 nM	0.00113 µM	12.5 nM	231 nM	1.57 nM	12.3 nM	4.04 nM	0.335 nM	0.462 nM	7.55 nM	0.869 nM	1.96 nM	14.8 nM	1.12 nM	IC50 ([2]; HSJD-DIPG-007, 72 h, read-out: IC50 values (μM)): 0.000739 µM; IC50 ([2]; HSJD-DIPG-007, 72 h, read-out: IC50 values of compounds): 0.00151 µM
CCc1c2c(nc3ccc(O)cc13)-c1cc3c(c(=O)n1C2)COC(=O)[C@@]3(CC)OC(=O)CCCCn1cc(CCCC(=O)NCCCOCCOCCOCCCNC(=O)CCC(=O)N[C@H]2CNC(=O)C[C@@H](C(N)=O)NC(=O)[C@H](CC(C)C)NC(=O)[C@H](C)NC(=O)[C@H]([C@@H](C)O)NC(=O)[C@H](CCC(=O)O)NC(=O)[C@@H]3CCCN3C(=O)[C@H](C)NC(=O)[C@H](CCCCN)NC2=O)nn1 [SN38-linker A-MiniAp4 (Ia)] ({X1-Suc}-[Dap]KAPETALD-NH2; lactam 1-9)	92.1 nM		51.5 nM	76.9 nM		25.6 nM		15.1 nM						72.9 nM	IC50 ([2]; read-out: IC50 values (μM) against cancer cell lines, HSJD-DIPG-007, MTS, 72 h incubation, Example 12, Table 5): 0.0203 µM; IC50 ([2]; read-out: IC50 values against cancer cell lines, HSJD-DIPG-007, MTS, 72 h incubation, Example 9, Table 3): 0.0342 µM; IC50 ([2]; read-out: IC50 values of compounds, HSJD-DIPG-007, MTS, 72 h incubation, Example 11, Table 4): 0.0107 µM; IC50 ([2]; read-out: IC50 values, HSJD-DIPG-007, MTS, 72 h incubation, Example 25, Table 8): 0.0278 µM; IC50 [5]: 6.94 nM; IC50 [7]: 744 nM; IC50 [9]: 3.8 nM; IC50 [10]: 13.9 nM; IC50 [11]: 6.65 nM; IC50 ([12]; 72 h incubation): 21.6 nM; IC50 [13]: 81.5 nM
